The structures appear in SMILES notation.

The test system of this assay is A549 cells. The experiment in a line: Anti-proliferative effects in SRC-1 knockdown A549 cells. It is filed as cell-based. The following applies: SRC-1 knockdown vs control. As to the method:
FIG. 7W illustrates the anti-proliferative effects of EVG in SRC1 knockdown and control cells. Data represent mean±s.e.m. (n=3).
After 6 days [or other time period as indicated] culture, cell viability was measured using CellTiter-Glo® Luminescent Cell Viability Assay (Promega, G7572) and DMSO group was used as normalization to calculate half maximal inhibitory concentration (IC50) using Graphpad Prism software.

Take `COc1cc2c(cc1Cc1cccc(Cl)c1F)c(=O)c(C(=O)O)cn2[C@H](CO)C(C)C` [EVG, 6-[(3-chloro-2-fluorophenyl)methyl]-1-[(2S)-1-hydroxy-3-methylbutan-2-yl]-7-methoxy-4-oxoquinoline-3-carboxylic acid]: the “anti-proliferative effects after inducible knockdown of SRC-1” value is on record as “partially resistant”.

These data come from patent US20240125768A1, “METHODS FOR MODULATING A SRC-1 CONDENSATE” (ETERN BIOPHARMA (SHANGHAI) CO., LTD., priority 2021, published 2024).
